{"source": "patent US12163169B2", "about": "“Inducible chimeric cytokine receptors” (Allogene Therapeutics, Inc., priority 2018, dated 2024)", "molecules": {"B1": {"name": "IL-7: exogenous recombinant IL-7 (Miltenyi), positive control (protein, UniProt P13232 26-177, looked up)", "Interleukin-7": "DCDIEGKDGKQYESVLMVSIDQLLDSMKEIGSNCLNNEFNFFKRHICDANKEGMFLFRAARKLRQFLKMNSTGDFDLHLLKVSEGTTILLNCTGQVKGRKPAALGEAQPTKSLEENKSLKEQKKLNDLCFLKRLLQEIKTCWNKILMGTKEH"}}, "assay_type_in_all_cases": "cell-based", "key": {"STAT4": {"system": "STAT4", "test": "HEK293T transcription factor reporter assay of cytotails (Example 16A), Stat4", "conditions": "1 ug/mL AP1903, 6 hours; FIG. 39B", "protocol": "To test the signaling pathways activated by different cytotails, we utilized a HEK293T cell reporter assay. Briefly, 20,000 HEK293T cells were plated into each well of a poly-L-lysine-coated 96-well flat-bottom plate and allowed to adhere overnight. An inducible cytokine receptor (2.5 ng), the respective transcription factor response element that drives Firefly Luciferase (100 ng; Promega) and a Renilla Luciferase control reporter vector (1 ng; Promega) were mixed in a final volume of 5 uL in Opti-MEM (Gibco) (“DNA mix”). 0.3 uL Lipofectamine 2000 (Invitrogen) in 5 uL Opti-MEM was incubated at room temperature for 5 minutes and then added to the DNA mix. The mixture was incubated at room temperature for 20 minutes and the total volume of 10 uL was added to each well containing HEK-293T. As a negative control, the FKBP ectodomain was coupled to the transmembrane and short intracellular region of TpoR(478-528) that lacked the JAK-binding domain and cytotail (i.e. TpoR CTRL). As a comparison, the FKBP ectodomain was coupled to the MyD88/CD40 signaling domains (henceforth referred to as “FKBP-MyD88-CD40”). 24 hours after transfection, cells were either left untreated, or treated with 1 ug/mL AP1903 (Apex Bio) diluted in serum-free media. 6 hours after AP1903 treatment, reporter activity was determined using the Dual-Glo Luciferase Assay System (Promega). […]"}, "[1]": {"system": "U87KO-EGFRvIII-nucRFP target cells", "test": "4-day in vitro cytotoxicity assay against U87KO-EGFRvIII-nucRFP target cells (Example 16B)", "conditions": "EGFRvIII CAR (2173 scFv); E:T 1:8; 500 ng/ml AP1903; 4 days; FIGS. 40A-40F", "protocol": "(§1) To test whether different cytotail outputs influenced the effector function of CAR T cells, we performed a 4-day in vitro cytotoxicity assay. Briefly, 30,000 U87KO-EGFRvIII-nucRFP target cells were seeded and allowed to attach in 96-well plates with black walls and flat clear bottom in 50 uL RPMI containing 10% FBS (Hyclone), non-essential amino acids, sodium pyruvate and 20-25 mM HEPES. U87KO-EGFRvIII is a kind gift from Cellectis SA (Paris, France). U87KO-EGFRvIII was derived from the parental cell line, U87MG (ATCC), by first knocking out endogenous wildtype EGFR using Transcription Activator-Like Effector Nucleases (TALEN), and then stably overexpressing full-length human EGFRvIII via lentiviral transduction. To facilitate target cell imaging via the IncuCyte Live Cell Analysis Imaging System, U87KO-EGFRvIII-nucRFP target cells were derived from U87KO-EGFRvIII by a second lentiviral transduction with IncuCyte NucLight Red Lentivirus Reagent (Sartorius). EGFRvIII CAR (2173 scFv) T cells bearing an FKBP switch with the respective cytotails were thawed and added to plated target cells at an Effector:Target (E:T) ratio of 1:8. As a comparison, CAR T cells coexpressing FKBP-MyD88-CD40 were included. […] The number of live target cells at each timepoint was determined by enumerating the number of live nuclearRFP+ cells using the Incucyte Live Cell Analysis Imaging System. […]"}, "CAR T cells [2]": {"system": "CAR T cells", "test": "Cytokine release (MSD assay) at the end of the 4-day cytotoxicity assay (Example 16B)", "protocol": "as §1"}, "CAR T cells [3]": {"system": "CAR T cells", "test": "Cytokine release (MSD assay) on Day 5 of the AP1903-driven growth assay (Example 16B)", "conditions": "500 ng/ml of AP1903; FIGS. 42A-42B", "protocol": "To test whether different cytotail outputs influenced the memory differentiation and long-term survival of CAR T cells, we performed an AP1903-driven growth assay. CAR T cells bearing the indicated chimeric receptors were thawed and the percentages of CAR+ cells were normalized to the sample with the lowest transduction efficiency (i.e. 20% CAR+) by adding non-transduced T cells. Cells were either left untreated, or treated with 500 ng/ml of AP1903, and in the absence of exogenous cytokines (unless specified in the case of positive controls) or target cells for 2 weeks. […] On Day 5 of the AP1903-driven growth assay, supernatents were sampled for the analysis of cytokine release using the MSD assay (Meso Scale Discovery). At the end of the 2-week culture, the memory and exhaustion phenotypes of surviving CAR T cells were determined. Briefly, duplicate samples from each culture condition cells were harvested and stained using the Zombie NIR Fixable Viability Kit (Biolegend). […]"}, "STAT5": {"system": "STAT5", "test": "HEK293T Stat5 reporter assay of FKBP switches lacking JAK-binding motifs or cytotail tyrosines (Example 3B)", "conditions": "5 hours post-treatment, compared to positive control FKBP switch TpoR(478-582)/IL7R(316-459), FIG. 5B", "source_text": "To identify components essential for the inducible chimeric cytokine receptor to signal, we generated FKBP switches that lacked either the JAK-binding domains or tyrosine residues in the cytotail domain. Specifically, either one or both JAK-binding motifs from TpoR(478-582) were replaced with glycine linkers, or all or a single (i.e. Y449) tyrosine residue(s) in the IL7R(316-459) cytotail was mutated to phenylalanine. The term “switch” as used in the Example section refers to the inducible chimeric cytokine receptor. For example, an “FKBP switch” as used herein is an inducible chimeric cytokine receptor comprising FKBP as the dimerization domain.\nA HEK293T cell reporter assay was used to test how each of these domains affected cytokine signaling. Briefly, 20,000 HEK293T cells were plated into each well of a poly-L-lysine-coated 96-well flat-bottom plate and allowed to adhere overnight. […] 24 hours after transfection, cells were either left untreated, or treated with the indicated concentrations of AP1903 (Apex Bio) diluted in serum-free media, and Stat reporter activity was determined 5 hours post-treatment using the Dual-Glo Luciferase Assay System (Promega). […]"}, "CAR T cells [4]": {"system": "CAR T cells", "test": "AP1903-driven growth assay: enrichment, memory and exhaustion phenotype of CAR T cells (Example 16B)", "conditions": "2 weeks; exogenous recombinant cytokine 10 ng/mL; 20% CAR+ seeded; FIG. 43", "experimental": "To test whether different cytotail outputs influenced the memory differentiation and long-term survival of CAR T cells, we performed an AP1903-driven growth assay. CAR T cells bearing the indicated chimeric receptors were thawed and the percentages of CAR+ cells were normalized to the sample with the lowest transduction efficiency (i.e. 20% CAR+) by adding non-transduced T cells. Cells were either left untreated, or treated with 500 ng/ml of AP1903, and in the absence of exogenous cytokines (unless specified in the case of positive controls) or target cells for 2 weeks. As positive controls, CAR T cells were alternatively supplemented with either exogenous recombinant IL-7 or IL-2 (10 ng/mL each; Miltenyi). […] At the end of the 2-week culture, the memory and exhaustion phenotypes of surviving CAR T cells were determined. Briefly, duplicate samples from each culture condition cells were harvested and stained using the Zombie NIR Fixable Viability Kit (Biolegend). […]"}}, "note": "Ends that are not written are not given here.", "data": [{"molecule": "IL12Rb2small(775-825): FKBP switch (Example 16) bearing the IL12Rb2small(775-825) cytotail (SDPKPENPACPWTVLPAGDLPTHDGYLPSNIDDLPSHEAPLADSLEELEPQ; also: FKBP switch fusion; UniProt Q99665 775-825, looked up, fragment)", "values": [{"measurement": "Stat4 reporter activation", "setting": "STAT4", "value": "activating Stat4"}, {"measurement": "CAR T cell cytotoxicity in the presence of AP1903", "setting": "[1]", "value": "enhances CART cell cytotoxic potency"}, {"measurement": "IL-10 secretion", "setting": "CAR T cells [2]; AP1903, FIG. 41A", "value": "increased IL-10 secretion"}, {"measurement": "pro-inflammatory cytokine release in the presence of AP1903", "setting": "CAR T cells [2]; IL-17A/F, IL-21, TNFa and IFNg, FIG. 41A", "value": "released elevated amounts of pro-inflammatory cytokines"}, {"measurement": "cytokine release on Day 5 of AP1903-driven growth", "setting": "CAR T cells [3]", "value": "secrete elevated amounts of pro-inflammatory cytokines"}]}, {"molecule": "IL7R(424-459; Y456F): FKBP switch (Example 16) cytotail said to abrogate Stat5 activity, used as comparator (GILTLNPVAQGQPILTSLGSNQEEAYVTMSSFFQNQ; also: FKBP switch fusion; UniProt P16871 424-459, looked up, variant Y456F)", "values": [{"measurement": "AP1903-induced Stat5 reporter activity", "setting": "STAT5", "value": "abrogates Stat5 activity"}]}, {"molecule": "B1", "values": [{"measurement": "percentage of CAR+ cells", "setting": "CAR T cells [4]", "value": "~20", "unit": "%"}]}]}
